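1) Cells in 96-well plates. 2) Compound, 48 h, 5 concentrations. 3) Linear interpolation between surrounding doses. 4) Unreached endpoint = highest concentration. At the GI50, growth is halved.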 The source made the active and inactive calls. Cut-off read from the data, not from the text of the source: active = GI50 up to about 1.1 µM and inactive = higher.
Legend:
Experiment in all cases: NCI anticancer screen, dose series, 48 h
[1] = system: IGROV-1
[2] = system: M14
[3] = system: KM12
[4] = system: SK-OV-3
[5] = system: COLO 205
[6] = system: SF-268
[7] = system: SK-MEL-28
[8] = system: NCI-H522
[9] = system: HCC 2998
[10] = system: OVCAR-4
[11] = system: SF-539
[12] = system: SK-MEL-5
[13] = system: NCI-H226
[14] = system: K562
[15] = system: OVCAR-5
[16] = system: UACC-257
[17] = system: A498
[18] = system: HOP-92

Measured: GI50

Cc1cc2c(cc1CO)N1Cc3cc(C)c(CO)cc3N(C2)C1
inactive: [1] > 100 µM | [2] > 100 µM | [3] > 100 µM | [4] > 100 µM | [5] > 100 µM | [6] > 100 µM | [7] > 100 µM | [8] > 100 µM | [9] > 100 µM | [10] > 100 µM | [11] > 100 µM | [12] > 100 µM | [13] > 100 µM | [14] > 100 µM

COc1ccc(N/N=C(\CCN(C)C)c2ccccc2)cc1
inactive: [1] 4.18 µM | [15] 9.57 µM | [2] 10.9 µM | [3] 4.73 µM | [4] 3.41 µM | [16] 3.78 µM | [5] 2.78 µM | [6] 1.62 µM | [7] 2.69 µM | [17] 14.9 µM | [8] 10.7 µM | [10] 4.67 µM | [11] 1.68 µM | [12] 6.37 µM | [14] 2.39 µM

COCN(C)c1nc(N(C)C)nc(N(C)C)n1
inactive: [1] > 100 µM | [15] > 100 µM | [2] > 100 µM | [3] > 100 µM | [4] > 100 µM | [16] > 100 µM | [5] > 100 µM | [6] > 100 µM | [7] > 100 µM | [17] > 100 µM | [18] > 100 µM | [8] 9.06 µM | [9] > 100 µM | [10] > 100 µM | [11] > 100 µM | [12] > 100 µM | [14] > 100 µM

NC(CCC(=O)Nc1ccc(O)cc1)C(=O)O (stereo not drawn)
inactive: [15] > 100 µM | [2] > 100 µM | [3] > 100 µM | [4] > 100 µM | [16] > 100 µM | [5] > 100 µM | [6] > 100 µM | [7] > 100 µM | [17] > 100 µM | [18] > 100 µM | [8] > 100 µM | [10] > 100 µM | [12] > 100 µM | [13] > 100 µM | [14] > 100 µM

N#CC1(c2nc3ccccc3o2)C(=O)C(=O)N(c2ccc(Cl)c(Cl)c2)C(=O)C1=O
inactive: [15] > 100 µM | [2] > 100 µM | [3] > 100 µM | [16] > 100 µM | [5] > 100 µM | [6] > 100 µM | [7] > 100 µM | [18] 12.2 µM | [8] > 100 µM | [9] > 100 µM | [10] 58.6 µM | [12] > 100 µM | [13] > 100 µM | [14] 71 µM

c1cnc2c(c1)-n1cccc1C1(CCSC1)NN2 (stereo not drawn)
inactive: [15] > 100 µM | [2] > 100 µM | [3] > 100 µM | [16] > 100 µM | [5] > 100 µM | [6] > 100 µM | [7] > 100 µM | [8] > 100 µM | [9] > 100 µM | [10] > 100 µM | [11] > 100 µM | [12] > 100 µM | [13] > 100 µM | [14] > 100 µM

CCOC(=O)C1(Br)C(c2ccccc2)NC(=O)N(C2OC(COC(=O)c3ccccc3)C(OC(=O)c3ccccc3)C2OC(=O)c2ccccc2)C1(C)Br (stereo not drawn)
inactive: [1] 34.9 µM | [2] 21 µM | [3] 21.6 µM | [4] 42.9 µM | [16] 18.6 µM | [5] 24.4 µM | [6] > 55.5 µM | [7] > 47 µM | [17] 38.9 µM | [18] 18.1 µM | [8] 10.2 µM | [9] 91 µM | [10] 13.9 µM | [11] 38.7 µM | [12] 15.2 µM | [14] 8.91 µM

COc1cc2c(cc1OC)C(CC1=C(c3ccccc3)CN3CCc4cc(OC)c(OC)cc4C3C1)NCC2 (stereo not drawn)
inactive: [1] 16.6 µM | [15] 18.5 µM | [2] 21.3 µM | [3] 17.2 µM | [4] 28 µM | [16] 16.2 µM | [5] 15.2 µM | [6] 15 µM | [7] 14.5 µM | [17] 16.7 µM | [9] 10.6 µM | [10] 14 µM | [12] 12.4 µM | [13] 18.9 µM | [14] 12.2 µM

CCOC(=O)N[C@@H]1C2CC(=O)C(O2)[C@@H]1OC (stereo partly drawn)
inactive: [1] > 100 µM | [15] > 100 µM | [2] > 100 µM | [3] > 100 µM | [4] > 100 µM | [16] > 100 µM | [5] > 100 µM | [6] > 100 µM | [7] 7.08 µM | [18] > 100 µM | [8] > 100 µM | [9] > 100 µM | [10] > 100 µM | [11] > 100 µM | [12] > 100 µM | [13] > 100 µM | [14] > 100 µM

COC(=O)C(Cc1nc2ccccc2nc1O)C(=O)C(=O)Nc1ccc(OC)cc1[N+](=O)[O-] (stereo not drawn)
inactive: [1] > 100 µM | [15] > 100 µM | [2] > 100 µM | [3] > 100 µM | [4] > 100 µM | [16] > 100 µM | [5] > 100 µM | [6] > 100 µM | [7] > 100 µM | [18] 96.2 µM | [8] > 100 µM | [9] > 100 µM | [10] > 100 µM | [11] > 100 µM | [12] > 100 µM | [13] > 100 µM | [14] > 100 µM

NC1CC(n2ccc(=O)[nH]c2=O)OC1C(O)CO (stereo not drawn)
inactive: [1] > 100 µM | [15] > 100 µM | [2] > 100 µM | [3] > 100 µM | [4] > 100 µM | [16] > 100 µM | [5] > 100 µM | [6] > 100 µM | [7] > 100 µM | [18] > 100 µM | [8] > 100 µM | [9] > 100 µM | [10] > 100 µM | [11] > 100 µM | [12] > 100 µM | [13] > 100 µM | [14] > 100 µM

CCCCc1c2c(nc3c1CCc1cc4c(nc1-3)-c1nc3c(c(CCCC)c1CC4)CCC/C3=C\c1ccccc1)/C(=C/c1ccccc1)CCC2
inactive: [1] 81.5 µM | [15] > 100 µM | [2] > 100 µM | [3] 98.9 µM | [4] 36.2 µM | [16] > 100 µM | [5] > 100 µM | [6] > 100 µM | [7] > 100 µM | [17] > 100 µM | [18] > 100 µM | [8] 44.1 µM | [9] 88.3 µM | [11] 33.5 µM | [12] 69.7 µM | [13] > 100 µM | [14] > 100 µM

CC(=O)OC1=C2CC[C@@H]3C(CC[C@@]4(C)C3CC[C@@H]4OC(C)=O)[C@@]2(C)CC(C#N)C1=O (stereo partly drawn)
inactive: [1] 19.2 µM | [15] 26.4 µM | [2] 25.1 µM | [3] 30.3 µM | [4] 18.3 µM | [16] 29.3 µM | [5] 20.8 µM | [6] 31 µM | [7] 30.3 µM | [17] 6.01 µM | [18] 15.1 µM | [9] 13.3 µM | [10] 24.4 µM | [11] 30.3 µM | [12] 20.2 µM | [13] 34.7 µM | [14] 22.6 µM

O=C1c2cnccc2Cc2cccc3c2N1c1ccccc1S3
inactive: [1] 28 µM | [2] 24.3 µM | [3] 19.7 µM | [16] 23.3 µM | [5] 27.4 µM | [6] 29 µM | [7] 26.1 µM | [17] 20.7 µM | [18] 9.23 µM | [8] 12.5 µM | [9] 16.6 µM | [10] 21.5 µM | [11] 20.6 µM | [12] 17.9 µM | [14] 20.8 µM

Cc1ccc(NC(=O)CC(=O)N2N=C(N(CCC#N)c3cccc(C)c3)CC2c2ccccc2)cc1 (stereo not drawn)
inactive: [1] > 100 µM | [15] > 100 µM | [2] > 100 µM | [3] > 100 µM | [4] > 100 µM | [16] > 100 µM | [5] > 100 µM | [6] > 100 µM | [7] > 100 µM | [18] > 100 µM | [8] > 100 µM | [9] > 100 µM | [10] > 100 µM | [11] > 100 µM | [12] > 100 µM | [13] > 100 µM | [14] > 100 µM

Cc1ccc(NC(=O)C(=O)C(C#N)c2nc(-c3ccc(-c4ccccc4)cc3)cs2)c(C)c1 (stereo not drawn)
inactive: [1] > 100 µM | [15] > 100 µM | [2] > 100 µM | [4] > 100 µM | [16] 58.7 µM | [5] > 100 µM | [6] > 100 µM | [7] > 100 µM | [17] > 100 µM | [9] > 100 µM | [10] > 100 µM | [11] > 100 µM | [12] > 100 µM | [13] > 100 µM

N#CC12CCC(O)C(CC1)C2=O (stereo not drawn)
inactive: [1] > 100 µM | [15] > 100 µM | [2] > 100 µM | [3] > 100 µM | [4] > 100 µM | [16] > 100 µM | [5] 87.9 µM | [6] > 100 µM | [7] > 100 µM | [17] > 100 µM | [8] > 100 µM | [9] > 100 µM | [10] > 100 µM | [11] > 100 µM | [12] > 100 µM | [13] > 100 µM | [14] > 100 µM
